ChEMBL document CHEMBL2074021, “Nuclear receptor response elements mediate induction of intestinal MDR1 by rifampin” (J Biol Chem, 2001)

Molecular target: ATP-dependent translocase ABCB1 (Homo sapiens, UniProt P08183)
Assay: TP_TRANSPORTER: Northern blot from LS174T cell
Format: functional, cell-based

ATP-dependent translocase ABCB1, sequence (P08183 whole entry): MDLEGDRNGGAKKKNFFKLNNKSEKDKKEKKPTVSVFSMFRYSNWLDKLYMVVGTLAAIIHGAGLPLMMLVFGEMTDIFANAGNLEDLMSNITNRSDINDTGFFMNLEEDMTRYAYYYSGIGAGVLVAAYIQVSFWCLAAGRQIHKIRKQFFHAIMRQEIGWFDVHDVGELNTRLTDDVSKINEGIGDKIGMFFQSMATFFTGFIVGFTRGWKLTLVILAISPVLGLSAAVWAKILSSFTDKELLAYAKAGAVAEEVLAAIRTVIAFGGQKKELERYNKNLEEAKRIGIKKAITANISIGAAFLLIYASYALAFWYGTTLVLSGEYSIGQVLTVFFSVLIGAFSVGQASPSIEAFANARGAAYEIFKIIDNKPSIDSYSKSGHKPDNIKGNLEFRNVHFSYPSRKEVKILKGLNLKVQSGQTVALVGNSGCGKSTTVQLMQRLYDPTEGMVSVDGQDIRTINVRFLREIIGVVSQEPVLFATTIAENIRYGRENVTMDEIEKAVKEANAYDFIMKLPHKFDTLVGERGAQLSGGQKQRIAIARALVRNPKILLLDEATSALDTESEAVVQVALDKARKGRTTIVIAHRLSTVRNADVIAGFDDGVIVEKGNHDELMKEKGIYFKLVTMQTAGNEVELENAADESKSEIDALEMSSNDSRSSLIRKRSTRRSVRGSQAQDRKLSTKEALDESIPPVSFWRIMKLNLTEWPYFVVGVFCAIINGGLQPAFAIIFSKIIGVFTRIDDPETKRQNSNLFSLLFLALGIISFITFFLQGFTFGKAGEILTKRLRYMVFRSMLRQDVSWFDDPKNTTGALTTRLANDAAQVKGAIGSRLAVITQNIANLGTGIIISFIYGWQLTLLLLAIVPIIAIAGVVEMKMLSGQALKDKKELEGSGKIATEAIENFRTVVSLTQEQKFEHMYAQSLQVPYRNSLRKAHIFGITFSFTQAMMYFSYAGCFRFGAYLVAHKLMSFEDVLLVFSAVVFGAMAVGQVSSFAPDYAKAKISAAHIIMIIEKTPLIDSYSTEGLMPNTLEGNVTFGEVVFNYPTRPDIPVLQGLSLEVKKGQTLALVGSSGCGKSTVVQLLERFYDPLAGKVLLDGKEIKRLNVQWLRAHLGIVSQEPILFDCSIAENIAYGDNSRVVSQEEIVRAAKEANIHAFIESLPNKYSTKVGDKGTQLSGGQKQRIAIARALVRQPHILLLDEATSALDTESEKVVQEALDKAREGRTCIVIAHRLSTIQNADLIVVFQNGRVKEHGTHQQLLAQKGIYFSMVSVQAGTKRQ

| Activity | Structure (SMILES) |
| --- | --- |
| inducer [+] | Clc1ccccc1C(c1ccccc1)(c1ccccc1)n1ccnc1 [CLOTRIMAZOLE] |
| inducer [+] | C[C@]12C[C@H](O)[C@H]3[C@@H](CCC4=CC(=O)CC[C@@]43C)[C@@H]1CC[C@@H]2C(=O)CO [CORTICOSTERONE] |
| inducer [+] | C[C@@H]1C[C@H]2[C@@H]3CCC4=CC(=O)C=C[C@]4(C)[C@@]3(F)[C@@H](O)C[C@]2(C)[C@@]1(O)C(=O)CO [DEXAMETHASONE] |
| inducer [+] | CC#C[C@]1(O)CC[C@H]2[C@@H]3CCC4=CC(=O)CCC4=C3[C@@H](c3ccc(N(C)C)cc3)C[C@@]21C [MIFEPRISTONE] |
| inducer [+] | COC(=O)[C@H]1[C@H]2C[C@@H]3c4[nH]c5cc(OC)ccc5c4CCN3C[C@H]2C[C@@H](OC(=O)c2cc(OC)c(OC)c(OC)c2)[C@@H]1OC [RESERPINE] |
| inducer [+] | CO[C@H]1/C=C/O[C@@]2(C)Oc3c(C)c(O)c4c(O)c(c(/C=N/N5CCN(C)CC5)c(O)c4c3C2=O)NC(=O)/C(C)=C\C=C\[C@H](C)[C@H](O)[C@@H](C)[C@@H](O)[C@@H](C)[C@H](OC(C)=O)[C@@H]1C [RIFAMPIN] |

The next lines start with the molecule.

| Structure (SMILES) | Activity |
| --- | --- |
| CC(=O)[C@H]1CC[C@H]2[C@@H]3CC[C@@H]4CC(=O)CC[C@]4(C)[C@H]3CC[C@]12C | inducer [+] |
| NC(=O)N1c2ccccc2C=Cc2ccccc21 [CARBAMAZEPINE] | inducer [+] |
| COC(=O)C1=C(C)NC(C)=C(C(=O)OC)C1c1ccccc1[N+](=O)[O-] [NIFEDIPINE] | inducer [+] |
| CC(=O)[C@H]1[C@H](C#N)C[C@H]2[C@@H]3CC=C4C[C@@H](O)CC[C@]4(C)[C@H]3CC[C@@]21C [PREGNENOLONE CARBONITRILE] | inducer [+] |
